Assay results published in US20230322722A1, “MODULATORS OF MYC FAMILY PROTO-ONCOGENE PROTEIN” (Nalo Therapeutics, priority 2020, published 2023).

Assays:
MycN protein = molecular target: T1, MycN protein (Homo sapiens, UniProt P04198); test: Degradation of MycN protein, Western blot, SKNBE2 cells (Example 160); format: cell-based
T1 construct: either 2×10^6 of L-363 (human leukemia cell line) or SKNBE2 (neuroblastoma cell line) cells; endogenous in cells; host or cells: SKNBE2 / SK-N-BE(2) neuroblastoma cells
T1 sequence (P04198 1-464): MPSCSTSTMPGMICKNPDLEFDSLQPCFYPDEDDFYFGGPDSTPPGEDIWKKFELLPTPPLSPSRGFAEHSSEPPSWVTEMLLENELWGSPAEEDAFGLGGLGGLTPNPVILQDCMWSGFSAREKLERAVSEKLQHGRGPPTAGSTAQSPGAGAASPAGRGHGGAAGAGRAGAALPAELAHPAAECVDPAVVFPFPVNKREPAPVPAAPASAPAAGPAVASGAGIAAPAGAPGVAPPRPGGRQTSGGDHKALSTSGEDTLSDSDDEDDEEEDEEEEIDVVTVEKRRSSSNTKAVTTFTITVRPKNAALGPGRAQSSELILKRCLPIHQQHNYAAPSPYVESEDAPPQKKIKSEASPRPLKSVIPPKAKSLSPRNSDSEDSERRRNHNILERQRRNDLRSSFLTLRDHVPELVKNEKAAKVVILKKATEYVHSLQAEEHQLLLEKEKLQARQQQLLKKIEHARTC
Outline: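 L-363 or SKNBE2 cells (passage <40, mostly <30) at 1×10^6 cells/mL in RPMI 1640/10% FBS were exposed 6 h to compound added from a 1 mM stock. RIPA lysates (25–30 ug protein) were analysed by SDS-PAGE and immunoblot with 1:500 primary antibody, with protein level quantified by band densitometry.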

MycC protein = molecular target: T2, MycC protein (Homo sapiens, UniProt P01106); test: Degradation of MycC protein, Western blot, L-363 cells (Example 160); format: cell-based; conditions: for inhibition at 2 µM: 6 h
T2 construct: either 2×10^6 of L-363 (human leukemia cell line) or SKNBE2 (neuroblastoma cell line) cells; endogenous in cells; host or cells: L-363 / L363 human leukemia cells
T2 sequence (P01106 whole entry): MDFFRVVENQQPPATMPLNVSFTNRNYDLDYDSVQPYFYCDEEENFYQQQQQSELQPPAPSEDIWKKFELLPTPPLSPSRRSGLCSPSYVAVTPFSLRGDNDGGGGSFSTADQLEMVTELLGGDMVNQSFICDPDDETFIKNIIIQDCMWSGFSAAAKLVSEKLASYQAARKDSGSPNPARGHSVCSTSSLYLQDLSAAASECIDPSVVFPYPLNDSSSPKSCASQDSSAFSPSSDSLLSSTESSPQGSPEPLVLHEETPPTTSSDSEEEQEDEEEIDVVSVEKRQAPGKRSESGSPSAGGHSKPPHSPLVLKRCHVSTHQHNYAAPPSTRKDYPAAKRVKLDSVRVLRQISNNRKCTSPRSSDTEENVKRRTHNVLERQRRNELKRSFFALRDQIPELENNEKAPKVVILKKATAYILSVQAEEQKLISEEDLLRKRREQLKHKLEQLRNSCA
Experimental: In a T150 flask was plated either 2×10^6 of L-363 (human leukemia cell line) or SKNBE2 (neuroblastoma cell line) cells in a total of 30 mL containing Roswell Park Memorial Institute (RPMI) 1640 Medium (Thermo Fisher, Cat. #11875-085), 10% Fetal Bovine Serum (FBS, Thermo Fisher: Cat. #10437-028), 1% Penicillin/streptomycin (Thermo Fisher: Cat. #10378016), and 1% Amophotericin B (Thermo Fisher, Cat. #15290026). The cells were split every 72 hours by reseeding the L-363 or SKNBE2 cells, and the passage number was noted. It is noteworthy that cell cultures that were above 40 passages were not used, and most experiments were done with cells of less than 30 passages.
In a 6-well cell culture plate, a total of 3 mL of either 1×10^6 cells/mL of L-363 or SKNBE2 cells were seeded, resulting in a total of 3×10^6 cells per well. To each well containing 3 mL of either L-363 or SKNBE2 cell line was added 6 uL of MycN modulating compound (1 mM) and the resulting plate was shaken from left to right, and not swirled. After 6 hours, the cells were placed in a 15 mL falcon tube and spun at 500 Gs at 4° C. in a swinging bucket centrifuge. The medium was then carefully removed without disturbing the pellet. The pellet was then washed with 3 mLs of chilled phosphate buffered saline (PBS) and subjected to the spin cycle. PBS was then removed and the pellet was lysed in 200 uL of radioimmunoprecipitation (RIPA) lysis buffer (Thermo Fisher: Cat. #899000) that is supplemented with protease and phosphatase inhibitors (Thermo Fisher: Cat. #A32959). The cell lysate was then subjected to spinning in a centrifuge for 10 minutes at 13000 G at 4° C. The supernatant was then carefully transferred to a fresh eppendorf tube without disturbing the pellet (˜180 uL). The protein concentration of the cell lysate was then determined by using a bicinchoninic acid (BCA assay) according to manufacturer's protocol (Thermo Fisher: Cat. #23227).
Cell lysate, approximately 25 ug-30 ug, was loaded per well in a 4-20% polyacrylamide gel (Biorad. Cat. #5671094). After running the dye front off of the gel, the gel was transferred to a nitrocellulose membrane (Biorad: Cat. #1704159) using the transblot turbo system (Biorad: Cat. #1704150) according to manufacturer's protocol. After transferring for 30 minutes, the membrane was blocked with 5% BSA for 1 hour at room temperature. The BSA was then washed off and the primary antibody of choice (1:500) was added, and the membrane was incubated with the primary antibody at 4° C. for overnight. The next morning, the primary antibody was removed and the membrane was washed with 1×-TBST for 10 minutes and repeated three more times. Following the last wash, a secondary antibody (Molecular Devices. Cat. #R8209 or R8208) was added at 1:5000 dilution and incubated for 1 hour at room temperature. Following the incubation with the secondary antibody, the membrane was washed with 1×-TBST for 10 minutes and repeated three more times. Following the last wash, the membrane was washed with de-ionized water twice and dried for at least two hours. Once the membrane is completely dry, the Molecular Devices Spectra Max western system was used to observe the bands. The western image was saved and the band density was measured with ImageJ software.

| Compound | inhibition at 2 µM (MycN protein; SKNBE2, 6 h) [%] | inhibition at 2 µM (MycC protein) [%] | inhibition at 2 µM (MycN protein; 6 h) [%] | % Degradation of MycN (SKNBE2) 6 h, 2 μM (MycN protein) | % Degradation of MycC (L-363) 6 h, 2 μM (MycC protein) |
| --- | --- | --- | --- | --- | --- |
| CN(c1nccc(Nc2cc(C3CC3)[nH]n2)n1)[C@H]1CC[C@H](NC(=O)c2cn3cccnc3n2)CC1 [Compound 141, N-((1R,4R)-4-((4-((5-cyclopropyl-1H-pyrazol-3-yl)amino)pyrimidin-2-yl)(methyl)amino)cyclohexyl)imidazo[1,2-a]pyrimidine-2-carboxamide] | 80 to 100 | 80 to 100 | – | – | – |
| CN(c1nccc(Nc2cc(C3CC3)[nH]n2)n1)C1CCN(CC(=O)Nc2cn(C3COC3)cn2)CC1 [Compound 10, 2-(4-((4-((5-cyclopropyl-1H-pyrazol-3-yl)amino)pyrimidin-2-yl)(methyl)amino)piperidin-1-yl)-N-(1-(oxetan-3-yl)-1H-imidazol-4-yl)acetamide] | 50 to 79 | 80 to 100 | – | – | – |
| CN(c1nccc(Nc2cc(C3CC3)[nH]n2)n1)[C@H]1CC[C@H](NC(=O)Cc2ccnc(C(F)(F)F)c2)CC1 [Compound 123, N-((1R,4R)-4-((4-((5-cyclopropyl-1H-pyrazol-3-yl)amino)pyrimidin-2-yl)(methyl)amino)cyclohexyl)-2-(2-(trifluoromethyl)pyridin-4-yl)acetamide] | 20 to 49 | 20 to 49 | – | – | – |
| Cn1nc(Nc2ccnc(N(C)[C@H]3CC[C@H](NC(=O)C4Cc5ccccc5C4)CC3)n2)cc1C1CC1 [Compound 111, N-((1R,4R)-4-((4-((5-cyclopropyl-1-methyl-1H-pyrazol-3-yl)amino)pyrimidin-2-yl)(methyl)amino)cyclohexyl)-2,3-dihydro-1H-indene-2-carboxamide] | 20 to 49 | < 20 | – | – | – |
| CN(c1nccc(Nc2cc(C3CC3)[nH]n2)n1)C1CCN(CC(=O)Nc2cn(C)nn2)CC1 [Compound 8, 2-(4-((4-((5-cyclopropyl-1H-pyrazol-3-yl)amino)pyrimidin-2-yl)(methyl)amino)piperidin-1-yl)-N-(1-methyl-1H-1,2,3-triazol-4-yl)acetamide] | 50 to 79 | 80 to 100 | – | – | – |
| COc1ccc(C#N)cc1CC(=O)N[C@H]1CC[C@H](N(C)c2nccc(Nc3cc(C4CC4)[nH]n3)n2)CC1 [Compound 126, 2-(5-cyano-2-methoxyphenyl)-N-((1R,4R)-4-((4-((5-cyclopropyl-1H-pyrazol-3-yl)amino)pyrimidin-2-yl)(methyl)amino)cyclohexyl)acetamide] | < 20 | 80 to 100 | – | – | – |
| CN(c1cc(C2CCCC2)[nH]n1)c1ccnc(N(C)[C@H]2CC[C@H](NC(=O)C3Cc4ccccc4C3)CC2)n1 [Compound 143, N-((1R,4R)-4-((4-((5-cyclopentyl-1H-pyrazol-3-yl)(methyl)amino)pyrimidin-2-yl)(methyl)amino)cyclohexyl)-2,3-dihydro-1H-indene-2-carboxamide] | < 20 | < 20 | – | – | – |
| CN(c1nccc(Nc2cc(C3CC3)[nH]n2)n1)[C@H]1CC[C@H](NS(=O)(=O)Cc2cccc(S(C)(=O)=O)c2)CC1 [Compound 157, N-((1R,4R)-4-((4-((5-cyclopropyl-1H-pyrazol-3-yl)amino)pyrimidin-2-yl)(methyl)amino)cyclohexyl)-1-(3-(methylsulfonyl)phenyl)methanesulfonamide] | 50 to 79 | 80 to 100 | – | – | – |
| CN(c1nccc(Nc2cc(C3CC3)[nH]n2)n1)[C@H]1CC[C@H](C(=O)NCc2cccc(C(F)(F)F)c2)CC1 [Compound 127, (1R,4R)-4-((4-((5-cyclopropyl-1H-pyrazol-3-yl)amino)pyrimidin-2-yl)(methyl)amino)-N-(3-(trifluoromethyl)benzyl)cyclohexane-1-carboxamide] | 80 to 100 | 80 to 100 | – | – | – |
| CN(c1nccc(Nc2cc(C3CC3)[nH]n2)n1)[C@H]1CC[C@H](NS(=O)(=O)Cc2cccc(C#N)c2)CC1 [Compound 158, 1-(3-cyanophenyl)-N-((1R,4R)-4-((4-((5-cyclopropyl-1H-pyrazol-3-yl)amino)pyrimidin-2-yl)(methyl)amino)cyclohexyl)methanesulfonamide] | 50 to 79 | 80 to 100 | – | – | – |
| CS(=O)(=O)c1cccc(NC(=O)CN2CCC(Nc3nccc(Nc4cc(C5CC5)[nH]n4)n3)CC2)c1 [Compound 6, 2-(4-((4-((5-cyclopropyl-1H-pyrazol-3-yl)amino)pyrimidin-2-yl)amino)piperidin-1-yl)-N-(3-(methylsulfonyl)phenyl)acetamide] | – | 80 to 100 | 50 to 79 | – | – |
| CN(c1nccc(Nc2cc(C3CC3)[nH]n2)n1)C1CCC(CC(=O)NC2Cc3ccccc3C2)CC1 (stereo not shown) [Compound 121, 2-(4-((4-((5-cyclopropyl-1H-pyrazol-3-yl)amino)pyrimidin-2-yl)(methyl)amino)cyclohexyl)-N-(2,3-dihydro-1H-inden-2-yl)acetamide] | – | 80 to 100 | 80 to 100 | – | – |
| CN(c1nccc(Nc2cc(C3CC3)[nH]n2)n1)[C@H]1CC[C@H](NC(=O)c2nc3ccccn3n2)CC1 [Compound 142, N-((1R,4R)-4-((4-((5-cyclopropyl-1H-pyrazol-3-yl)amino)pyrimidin-2-yl)(methyl)amino)cyclohexyl)-[1,2,4]triazolo[1,5-a]pyridine-2-carboxamide] | 80 to 100 | 80 to 100 | – | – | – |
| Cc1cnc(CC(=O)NC2CCC(N(C)c3nccc(Nc4cc(C5CC5)[nH]n4)n3)CC2)cn1 [Compound 108, N-((1R,4R)-4-((4-((5-cyclopropyl-1H-pyrazol-3-yl)amino)pyrimidin-2-yl)(methyl)amino)cyclohexyl)-2-(5-methylpyrazin-2-yl)acetamide] | 50 to 79 | 80 to 100 | – | – | – |
| CN(c1nccc(Nc2cn(C3CCCC3)cn2)n1)[C@H]1CC[C@H](NC(=O)C2Cc3ccccc3C2)CC1 [Compound 130, N-((1R,4R)-4-((4-((1-cyclopentyl-1H-imidazol-4-yl)amino)pyrimidin-2-yl)(methyl)amino)cyclohexyl)-2,3-dihydro-1H-indene-2-carboxamide] | < 20 | 50 to 79 | – | – | – |
| CN(c1nccc(Nc2cc(C3CC3)[nH]n2)n1)[C@H]1CC[C@H](NC(=O)C2CCCC(C(F)(F)F)C2)CC1 (stereo partly shown) [113 F2] | – | – | – | *** (degradation 50-79%) | *** (degradation 50-79%) |
| CN(c1nccc(Oc2cc(C3CCCC3)[nH]n2)n1)C1CCC(NC(=O)Cc2cccc(C(F)(F)F)c2)CC1 [Compound 131, N-((1R,4R)-4-((4-((5-cyclopentyl-1H-pyrazol-3-yl)oxy)pyrimidin-2-yl)(methyl)amino)cyclohexyl)-2-(3-(trifluoromethyl)phenyl)acetamide] | 20 to 49 | < 20 | – | – | – |
